We go through 20 molecules from ChEMBL document CHEMBL1128915, “2-cyanopyrrolidides as potent, stable inhibitors of dipeptidyl peptidase IV” (Bioorg Med Chem Lett, 1996).

A value given as a limit tells only on which side of the number the result lay.

Dipeptidyl peptidase 4, sequence (P27487 whole entry): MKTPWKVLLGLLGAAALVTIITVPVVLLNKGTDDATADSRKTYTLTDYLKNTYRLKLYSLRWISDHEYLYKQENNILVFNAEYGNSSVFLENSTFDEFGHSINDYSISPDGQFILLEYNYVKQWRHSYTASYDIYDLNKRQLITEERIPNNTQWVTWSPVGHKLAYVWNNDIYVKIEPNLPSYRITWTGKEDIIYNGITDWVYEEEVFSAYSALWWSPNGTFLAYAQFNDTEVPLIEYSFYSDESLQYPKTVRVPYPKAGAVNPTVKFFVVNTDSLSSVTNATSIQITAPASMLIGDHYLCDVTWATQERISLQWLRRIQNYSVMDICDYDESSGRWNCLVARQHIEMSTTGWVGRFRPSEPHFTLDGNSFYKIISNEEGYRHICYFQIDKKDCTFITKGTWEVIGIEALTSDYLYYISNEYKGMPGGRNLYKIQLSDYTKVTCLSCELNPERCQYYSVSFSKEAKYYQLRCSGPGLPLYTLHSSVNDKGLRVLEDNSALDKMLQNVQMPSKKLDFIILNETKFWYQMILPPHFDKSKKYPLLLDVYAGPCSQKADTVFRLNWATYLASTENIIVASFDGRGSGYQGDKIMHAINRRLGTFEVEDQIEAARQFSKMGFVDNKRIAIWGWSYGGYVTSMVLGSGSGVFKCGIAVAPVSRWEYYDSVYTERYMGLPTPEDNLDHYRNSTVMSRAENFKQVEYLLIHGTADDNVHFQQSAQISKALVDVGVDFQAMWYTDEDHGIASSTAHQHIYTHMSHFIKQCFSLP

The first data set addresses Dipeptidyl peptidase 4 (Homo sapiens, UniProt P27487). As to the kind of experiment: In vitro test for inhibitory activity against human dipeptidyl peptidase IV.
As for `NC(C(=O)N1CCCC1)C1CCCC1` (configuration not stated), the Ki – broadly, the equilibrium dissociation constant of an inhibitor or competing ligand from its target – turned out to be 0.21 µM.

In turn, `CC(C)(C)[C@H](N)C(=O)N1CCCC1` returned an inhibition constant (Ki) of 0.88 µM.

Take `O=C([C@H](CO)NCc1ccccc1)N1CCCC1`: the inhibition constant (Ki) was found to be 6 µM.

`NCCCC[C@H](NC(=O)OCc1ccccc1)C(=O)N1CCCC1` came in with a Ki of 0.52 µM.

In turn, `NCCC[C@H](NC(=O)OCc1ccccc1)C(=O)N1CCCC1` displayed a Ki of 0.91 µM.

Turning to `CNC(C(=O)N1CCCC1)[C@H](C)O` (some centres not stated), the inhibition constant (Ki) amounted to 0.9 µM.

Consider `N[C@@H](CCC(=O)OCc1ccccc1)C(=O)N1CCCC1`, for which affinity was put at a Ki of 2.7 µM.

In the case of `N[C@H](C(=O)N1CCCC1)c1ccccc1`, affinity was put at a Ki of 5.3 µM.

In turn, `CCCC[C@H](N)C(=O)N1CCCC1` displayed a Ki of 1.2 µM.

Consider `C[C@H](N)C(=O)N1CCCC1`, for which the Ki stood at 7 µM.

As for `N[C@@H](CCC(=O)O)C(=O)N1CCCC1`, the inhibitory constant (Ki) came to 2 µM.

As to `C[C@@H](O)[C@H](N)C(=O)N1CCCC1`, the inhibition constant Ki is 4.9 µM.

In turn, `N#C[C@@H]1CCCN1C(=O)[C@@H](N)CCCCN` yielded an inhibition constant (Ki) of 0.0052 µM.

Molecule `N[C@@H](CC(=O)O)C(=O)N1CCCC1` showed a Ki of 14.5 µM.

In the case of `O=C([C@@H]1CCCN1)N1CCC[C@H]1B(O)O`, the Ki is 0.003 µM.

System in another data set: not listed separately
As to the kind of experiment: Half-life in aqueous solution(pH 7.4). The data set is classed as ADME.
As to `N#C[C@@H]1CCCN1C(=O)[C@@H](N)C1CCCCC1`, the half-life – broadly, how long it takes for the measured level to halve – was > 48 h.

The molecule `CC[C@H](C)[C@H](N)C(=O)N1CCC[C@H]1C#N` showed a half-life of 48 h.

`CC(C)(C)[C@H](N)C(=O)N1CCC[C@H]1C#N`: the half-life is > 48 h.

Molecule `N#C[C@@H]1CCCN1C(=O)[C@@H]1CCCN1` showed a half-life of 7.5 h.

`N#C[C@@H]1CCCN1C(=O)[C@@H](N)CCCCN` showed a half-life of 24 h.

In turn, `C[C@H](N)C(=O)N1CCC[C@H]1B(O)O` displayed a half-life of 0.5 h.

The molecule `O=C([C@@H]1CCCN1)N1CCC[C@H]1B(O)O` came in with a half-life of 1.5 h.
